{"source": "paper PMC8241168", "about": "“Cholesterol–PEG comodified poly (N-butyl) cyanoacrylate nanoparticles for brain delivery: in vitro and in vivo evaluations” (Drug Delivery, 2017)", "key": {"[1]": {"assay": "Pharmacokinetic study, plasma C6 after IV administration", "assay_type": "in vivo", "settings": "rats, IV 0.5 mg/kg", "procedure": "Wistar rats (180–200 g) were obtained from the Institute of Laboratory Animal Science, Chinese Academy of Medical Sciences, Beijing, China, and all animal experiments were performed in accordance with the regulations of the Animal Care and Use Committee of the Chinese Academy of Medical Sciences. […] A standard diet of food and water was supplied ad libitum during the experiments. A polyethylene catheter (Portex, Hythe, UK) was inserted through the right jugular veins of all rats one day prior to the pharmacokinetic experiment, and flushed with 100 U/mL heparin in 0.9% saline. […] Subsequently, 100 μL of plasma was obtained by centrifugation at 5000 rpm for 7 min at 0 °C, and the serum was collected. The measurement of C6 in the samples was analyzed by a fluorescence microplate reader as described earlier."}, "[2]": {"assay": "Tissue distribution studies after IV administration", "assay_type": "in vivo, rats", "settings": "IV 0.5 mg/kg; for Tmax / AUC0-t / Cmax: C6, rats; for AUC0-t / Cmax: n = 3", "procedure": "Wistar rats (180–200 g) were obtained from the Institute of Laboratory Animal Science, Chinese Academy of Medical Sciences, Beijing, China, and all animal experiments were performed in accordance with the regulations of the Animal Care and Use Committee of the Chinese Academy of Medical Sciences. […] A standard diet of food and water was supplied ad libitum during the experiments. […] The samples were stored at −20 °C until further analysis. The drug-targeting index (DTI) is considered an important parameter for tissue targeting efficiency, and was calculated using the following formula: DTI=AUCx/AUCp(NPs)/AUCx/AUCP(Free drug) Where “AUCx” is the AUC of tissue x, and “AUCp” is the AUC of the plasma."}, "[3]": {"assay": "Specificity to the brain, confocal laser scanning microscopy of brain sections", "assay_type": "in vivo", "settings": "rats, IV, 0.5 h after dosing", "procedure": "Subsequently, the brain tissues were removed, washed with PBS, and fixed in 4% formaldehyde solution. After snap freezing in liquid nitrogen, the samples were embedded in […]. compound (Sakura Finetechnical, Tokyo, Japan) and cut into thin sections (10 μm). The slices were stained for cell nuclei with DAPI for 15 min in the dark and then washed three times with cold PBS. The sample was monitored by confocal laser scanning microscopy (Zeiss LSM710, Göttingen, Germany). ZEN Image Software 2012 was used to perform the image recording and image analysis. The image included 512 × 512 pixels measuring 2.77 × 2.77 μm^2."}, "[4]": {"test_system": "bEnd.3 cells", "assay": "Uptake of C6 CLS-PEG NPs by bEnd.3 cells", "assay_type": "cell-based, mouse", "settings": "20–100 μg/mL, 37 °C, 30 min to 4 h", "procedure": "BEnd. 3 cells were seeded into a 6-well plate and cultured for 24 h. Then, the medium was replaced with different concentrations (20–100 μg/mL) of free C6 or CLS-PEG NPs encapsulated with C6, and incubated at 37 °C for 2 h. To study the effects of incubation time on CLS-PEG NPs uptake, the CLS-PEG NPs loaded C6 (50 μg/mL) and the free C6 solution were added into the wells, and the plate was incubated at 37 °C for 30 min, 1 h, 2 h, or 4 h. At the end of the experiment, the cells were washed with ice-cold PBS three times. Subsequently, the cells were lysed with cell lysate (Beijing Saichi Biotechnology Co., Ltd., China). The quantitative measurement of intracellular C6 in bEnd.3 cell lysates was analyzed by a fluorescence microplate reader as described earlier. Total cell protein concentrations of the bEnd.3 cells were determined using a BCA protein assay (Beijing Kangwei Century Biotechnology Co., Ltd., China). The uptake of CLS-PEG NPs by bEnd.3 cells was calculated and expressed as the amount of CLS-PEG NPs (μg) taken up per mg of cell protein."}}, "data": [{"compound": "CCN(CC)c1ccc2cc(-c3nc4ccccc4s3)c(=O)oc2c1", "note": "[Free drug, coumarin-6]", "values": [{"measurement": "AUC0-t", "setting": "[1]; C6 in plasma, n = 6", "value": "15.8 ± 2.4", "unit": "µg·min/mL"}, {"measurement": "AUC0-∞", "setting": "[1]; C6 in plasma, n = 6", "value": "16.0 ± 2.3", "unit": "µg·min/mL"}, {"measurement": "C0", "setting": "[1]; C6 in plasma, n = 6", "value": "828.4 ± 139.0", "unit": "ng/mL"}, {"measurement": "CL", "setting": "[1]; C6 in plasma, n = 6", "value": "6.4 ± 0.9", "unit": "mL/min"}, {"measurement": "Vd, λz", "setting": "[1]; C6 in plasma, n = 6", "value": "0.6 ± 0.3", "unit": "L"}, {"measurement": "t1/2, λz", "setting": "[1]; C6 in plasma, n = 6", "value": "60.1 ± 24.0", "unit": "min"}, {"measurement": "time after injection at which C6 was undetectable in plasma", "setting": "[1]", "value": 4, "unit": "h"}, {"measurement": "Tmax", "setting": "[2]; Brain", "value": 30, "unit": "min"}, {"measurement": "AUC0-t", "setting": "[2]; Brain", "value": "3.84 ± 0.21", "unit": "µg·min/mL"}, {"measurement": "Cmax", "setting": "[2]; Brain", "value": "45.64 ± 2.25", "unit": "ng/g"}, {"measurement": "Tmax", "setting": "[2]; Heart", "value": 15, "unit": "min"}, {"measurement": "AUC0-t", "setting": "[2]; Heart", "value": "8.45 ± 0.93", "unit": "µg·min/mL"}, {"measurement": "Cmax", "setting": "[2]; Heart", "value": "113.89 ± 16.48", "unit": "ng/g"}, {"measurement": "Tmax", "setting": "[2]; Kidney", "value": 30, "unit": "min"}, {"measurement": "AUC0-t", "setting": "[2]; Kidney", "value": "2.56 ± 0.44", "unit": "µg·min/mL"}, {"measurement": "Cmax", "setting": "[2]; Kidney", "value": "22.20 ± 1.91", "unit": "ng/g"}, {"measurement": "Tmax", "setting": "[2]; Liver", "value": 15, "unit": "min"}, {"measurement": "AUC0-t", "setting": "[2]; Liver", "value": "141.71 ± 13.25", "unit": "µg·min/mL"}, {"measurement": "Cmax", "setting": "[2]; Liver", "value": "2685.53 ± 356.67", "unit": "ng/g"}, {"measurement": "Tmax", "setting": "[2]; Lung", "value": 30, "unit": "min"}, {"measurement": "AUC0-t", "setting": "[2]; Lung", "value": "63.88 ± 5.62", "unit": "µg·min/mL"}, {"measurement": "Cmax", "setting": "[2]; Lung", "value": "900.02 ± 67.86", "unit": "ng/g"}, {"measurement": "Tmax", "setting": "[2]; Spleen", "value": 15, "unit": "min"}, {"measurement": "AUC0-t", "setting": "[2]; Spleen", "value": "271.02 ± 16.03", "unit": "µg·min/mL"}, {"measurement": "Cmax", "setting": "[2]; Spleen", "value": "3848.83 ± 339.27", "unit": "ng/g"}, {"measurement": "distribution of C6 in the brain", "setting": "[2]; rats", "value": "very little distribution in the brain"}, {"measurement": "C6 fluorescent signal in the brain", "setting": "[3]", "value": "too weak to be distinguished"}, {"measurement": "cellular uptake by bEnd.3 cells", "setting": "[4]", "value": "only minimally entered the cells"}]}]}
